We go through 59 compounds from ChEMBL document CHEMBL1143513, “Structure-activity relationships for 2-anilino-6-phenylpyrido[2,3-d]pyrimidin-7(8H)-ones as inhibitors of the cellular checkpoint kinase Wee1” (Bioorg Med Chem Lett, 2005).

The IC50 is the concentration needed to halve the response being measured.

Test [1] can be described thus: Inhibition of c-Src tyrosine kinase.
In the next test the target is Wee1-like protein kinase (Homo sapiens, UniProt P30291). The test can be described thus: Inhibition of checkpoint kinase Wee1.
Wee1-like protein kinase, sequence (P30291 whole entry): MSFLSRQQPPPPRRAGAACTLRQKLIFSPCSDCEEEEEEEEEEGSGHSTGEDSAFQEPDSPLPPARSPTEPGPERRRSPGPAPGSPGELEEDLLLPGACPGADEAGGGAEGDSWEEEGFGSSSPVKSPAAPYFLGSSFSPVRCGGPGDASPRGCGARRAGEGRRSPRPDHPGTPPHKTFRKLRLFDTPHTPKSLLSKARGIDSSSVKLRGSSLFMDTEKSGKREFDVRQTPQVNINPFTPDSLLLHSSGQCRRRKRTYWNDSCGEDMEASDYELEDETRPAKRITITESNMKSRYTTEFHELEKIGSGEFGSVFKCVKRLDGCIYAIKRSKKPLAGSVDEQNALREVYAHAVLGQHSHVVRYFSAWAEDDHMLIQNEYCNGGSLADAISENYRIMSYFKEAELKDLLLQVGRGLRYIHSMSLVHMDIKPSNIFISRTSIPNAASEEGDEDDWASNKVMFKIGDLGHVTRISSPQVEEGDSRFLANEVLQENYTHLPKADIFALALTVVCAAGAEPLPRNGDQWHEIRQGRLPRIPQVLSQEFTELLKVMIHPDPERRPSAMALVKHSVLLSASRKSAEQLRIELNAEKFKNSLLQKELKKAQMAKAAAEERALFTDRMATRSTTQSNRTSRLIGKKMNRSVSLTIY
The nature of test [2]: Inhibition of Platelet-derived growth factor receptor.
Test [3] addresses Fibroblast growth factor receptor (Homo sapiens, UniProt P22607+P11362+P22455+P21802). The test can be described thus: Inhibition of Fibroblast growth factor receptor. It is filed as protein assay.

Consider `COc1cccc(OC)c1-c1cc2cnc(Nc3ccccc3)nc2n(C)c1=O`, for which the IC50 in test [1] was 980 nM; on Wee1-like protein kinase, > 50000 nM.
Take `CCN(CC)CCOc1ccc(Nc2ncc3c(C)c(-c4ccccc4Cl)c(=O)n(C)c3n2)cc1`: the values for the concentration for half-maximal inhibition (IC50) (in test [1]; on Wee1-like protein kinase) were > 50000 nM and 550 nM, respectively.
The like results for `Cn1c(=O)c(-c2c(Cl)cccc2Cl)cc2cnc(Nc3ccc(CCC(N)=O)cc3)nc21` were, in that order, 30 nM and 190 nM.
In test [2], `CC(C)(C)NC(=O)Nc1nc2nc(N)ncc2cc1-c1c(Cl)cccc1Cl` came in with an IC50 of 1100 nM. This lies in the single-digit micromolar range.
On to `Cn1c(=O)c(-c2c(Cl)cc(Cl)cc2Cl)cc2cnc(Nc3ccccc3)nc21`, for which the figures for the half-inhibitory concentration (IC50) (in test [1]; on Wee1-like protein kinase) were 330 nM and 8600 nM, respectively.
`CCN(CC)CCOc1ccc(Nc2ncc3cc(-c4c(Cl)cc(O)cc4Cl)c(=O)n(C)c3n2)cc1`: the IC50 worked out at 8 nM in test [1] and 80 nM on Wee1-like protein kinase.
The like results for `Cc1c(O)cc(O)c(C)c1-c1cc2cnc(Nc3ccccc3)nc2n(C)c1=O` were, in that order, 110 nM and 1000 nM.
Consider `Cn1c(=O)c(-c2c(Cl)c(O)cc(O)c2Cl)cc2cnc(Nc3ccccc3)nc21`, for which the concentration for half-maximal inhibition (IC50) stood at 11 nM in test [1] and 140 nM against Wee1-like protein kinase.
The like results for `Cn1c(=O)c(-c2c(Cl)cc(O)cc2Cl)cc2cnc(Nc3ccccc3)nc21` were, in that order, 73 nM and 220 nM.
As to `Cn1c(=O)c(-c2c(Cl)cccc2Cl)cc2cnc(Nc3ccc(CCCCC(N)=O)cc3)nc21`, the values for the IC50 (in test [1]; on Wee1-like protein kinase) were 28 nM and 260 nM, respectively.
In the same order, the values of `CCN(CC)CCOc1ccc(Nc2ncc3c(C)c(-c4c(C)cccc4C)c(=O)n(C)c3n2)cc1` are 360 nM and 540 nM.
For `Cn1c(=O)c(-c2c(Cl)cccc2Cl)cc2cnc(Nc3ccc(CCCC4N=NN=N4)cc3)nc21`, the half-inhibitory concentration (IC50) in test [1] was found to be 25 nM; at Wee1-like protein kinase, 69 nM.
The like results for `Cc1c(-c2ccccc2Cl)c(=O)n(C)c2nc(Nc3ccccc3)ncc12` were, in that order, > 50000 nM and 410 nM.
The like results for `CN(C)CCOC(=O)CCCc1ccc(Nc2ncc3cc(-c4c(Cl)cccc4Cl)c(=O)n(C)c3n2)cc1` were, in that order, 7 nM and 124 nM.
The like results for `Cn1c(=O)c(-c2c(Cl)cccc2Cl)cc2cnc(Nc3ccc(CCCC(=O)OCCN4CCOCC4)cc3)nc21` were, in that order, 4 nM and 95 nM.
With `Cn1c(=O)c(-c2c(Cl)ccc(CN)c2Cl)cc2cnc(Nc3ccccc3)nc21`, the IC50 in test [1] worked out at 62 nM; against Wee1-like protein kinase it was 31000 nM.
As to `Cn1c(=O)c(-c2c(F)cccc2Cl)cc2cnc(Nc3ccccc3)nc21`, the figures for the half-inhibitory concentration (IC50) (in test [1]; at Wee1-like protein kinase) were 43 nM and 2400 nM, respectively.
The like results for `COc1ccc(Cl)c(-c2cc3cnc(Nc4ccccc4)nc3n(C)c2=O)c1Cl` were, in that order, 540 nM and > 50000 nM.
As for `Cn1c(=O)c(-c2c(C(F)(F)F)cccc2C(F)(F)F)cc2cnc(Nc3ccccc3)nc21`, the half-inhibitory concentration (IC50) was determined as 8100 nM in test [1] and 41000 nM on Wee1-like protein kinase.
Turning to `Cn1c(=O)c(-c2c(F)cccc2F)cc2cnc(Nc3ccccc3)nc21`, the results for the 50% inhibitory concentration (IC50) (in test [1]; at Wee1-like protein kinase) were 66 nM and 9700 nM, respectively.
In the case of `Cn1c(=O)c(-c2c(O)cccc2O)cc2cnc(Nc3ccccc3)nc21`, the half-inhibitory concentration (IC50) in test [1] is 720 nM; against Wee1-like protein kinase it was 27000 nM.
On to `Cn1c(=O)c(-c2c(Cl)ccc(Cl)c2Cl)cc2cnc(Nc3ccccc3)nc21`, for which the values for the IC50 (in test [1]; against Wee1-like protein kinase) were 270 nM and > 50000 nM, respectively.
The compound `CCN(CC)CCOc1ccc(Nc2ncc3cc(-c4c(Cl)cccc4Cl)c(=O)n(C)c3n2)cc1` [PD-0166285] registered an IC50 in test [2] of 79000 nM.
On to `Cn1c(=O)c(-c2c(Cl)cccc2Cl)cc2cnc(Nc3ccccc3)nc21`, for which the concentration for half-maximal inhibition (IC50) came to 24 nM in test [1] and 2600 nM against Wee1-like protein kinase.
On to `CC(=O)Nc1ccc(Cl)c(-c2cc3cnc(Nc4ccccc4)nc3n(C)c2=O)c1Cl`, for which the concentration for half-maximal inhibition (IC50) in test [1] was 780 nM; at Wee1-like protein kinase, > 50000 nM.
Take `COc1cc(OC)c(Cl)c(-c2cc3cnc(Nc4ccccc4)nc3n(C)c2=O)c1Cl`: the IC50 (in test [1]; against Wee1-like protein kinase) was > 50000 nM each time.
As for `Cn1c(=O)c(-c2c(Cl)cccc2C(F)(F)F)cc2cnc(Nc3ccccc3)nc21`, the IC50 in test [1] was 210 nM; against Wee1-like protein kinase, > 50000 nM.
Consider `Cn1c(=O)c(-c2c(Cl)ccc(N)c2Cl)cc2cnc(Nc3ccccc3)nc21`, for which the half-inhibitory concentration (IC50) in test [1] amounted to 90 nM; on Wee1-like protein kinase it was 2600 nM.
The like results for `COc1cccc(O)c1-c1cc2cnc(Nc3ccccc3)nc2n(C)c1=O` were, in that order, 50 nM and 11000 nM.
On to `Cn1c(=O)c(-c2c(Cl)cccc2Cl)cc2cnc(Nc3ccc(CCCC(=O)OCCN4CCCCC4)cc3)nc21`, for which the 50% inhibitory concentration (IC50) in test [1] is 11 nM; at Wee1-like protein kinase, 142 nM.
The like results for `COc1cc(Cl)c(-c2cc3cnc(Nc4ccccc4)nc3n(C)c2=O)c(Cl)c1` were, in that order, 6500 nM and > 50000 nM.
For `COc1cc(OC)cc(-c2cc3cnc(N)nc3nc2NC(=O)NC(C)(C)C)c1`, the IC50 in test [2] is > 50000 nM.
As to `COc1cc(OC)cc(-c2cc3cnc(NCCCN4CCOCC4)nc3nc2NC(=O)NC(C)(C)C)c1`, the half-inhibitory concentration (IC50) in test [1] is > 50000 nM; in test [3], 30 nM.
Turning to `Cn1c(=O)c(-c2c(Cl)cc(O)cc2Cl)cc2cnc(Nc3ccc(OCCCC(=O)O)cc3)nc21`, the values for the concentration for half-maximal inhibition (IC50) (in test [1]; on Wee1-like protein kinase) were 6 nM and 40 nM, respectively.
The like results for `CCN(CC)CCOc1ccc(Nc2ncc3cc(-c4c(Cl)ccc(O)c4Cl)c(=O)n(C)c3n2)cc1` were, in that order, 6 nM and 150 nM.
For the compound `Cn1c(=O)c(-c2c(O)cccc2Cl)cc2cnc(Nc3ccccc3)nc21`, the figures for the IC50 (in test [1]; against Wee1-like protein kinase) were 22 nM and 1500 nM, respectively.
The like results for `Cn1c(=O)c(-c2c(Cl)ccc(O)c2Cl)cc2cnc(Nc3ccc(OCCCC(=O)O)cc3)nc21` were, in that order, 99 nM and 40 nM.
In the case of `Cc1cccc(Cl)c1-c1cc2cnc(Nc3ccccc3)nc2n(C)c1=O`, the half-inhibitory concentration (IC50) stood at 12 nM in test [1] and 1900 nM on Wee1-like protein kinase.
The like results for `COc1cc(C)c(-c2cc3cnc(Nc4ccccc4)nc3n(C)c2=O)c(C)c1` were, in that order, 250 nM and > 50000 nM.
Take `COc1cccc(Cl)c1-c1cc2cnc(Nc3ccccc3)nc2n(C)c1=O`: the IC50 was 120 nM in test [1] and 3400 nM on Wee1-like protein kinase.
In the same order, the values of `Cn1c(=O)c(-c2c(Cl)ccc(C(N)=O)c2Cl)cc2cnc(Nc3ccccc3)nc21` are 130 nM and 8600 nM.
Take `CCN(CC)CCOc1ccc(Nc2ncc3cc(-c4c(C)cccc4C)c(=O)n(C)c3n2)cc1`: the IC50 in test [1] stood at 23 nM; at Wee1-like protein kinase, 990 nM.
As for `Cn1c(=O)c(-c2c(Cl)cccc2Cl)cc2cnc(Nc3ccc(CC(N)=O)cc3)nc21`, the values for the IC50 (in test [1]; against Wee1-like protein kinase) were 13 nM and 120 nM, respectively.
The like results for `CC(=O)Nc1cc(Cl)c(-c2cc3cnc(Nc4ccccc4)nc3n(C)c2=O)c(Cl)c1` were, in that order, 1500 nM and 3600 nM.
The like results for `Cn1c(=O)c(-c2c(Cl)cccc2Cl)cc2cnc(Nc3ccc(OCC(N)=O)cc3)nc21` were, in that order, 14 nM and 250 nM.
In the same order, the values of `Cn1c(=O)c(-c2c(Cl)cccc2Cl)cc2cnc(Nc3ccc(CC(N)C(=O)O)cc3)nc21` (stereo not given) are 9 nM and 90 nM.
As for `Cn1c(=O)c(-c2c(Cl)cc(N)cc2Cl)cc2cnc(Nc3ccccc3)nc21`, the IC50 in test [1] came out at 270 nM; against Wee1-like protein kinase, 3700 nM.
For the compound `Cc1ccc(Cl)c(-c2cc3cnc(Nc4ccccc4)nc3n(C)c2=O)c1Cl`, the results for the IC50 (in test [1]; on Wee1-like protein kinase) were 2800 nM and 50000 nM, respectively.
In the same order, the values of `Cn1c(=O)c(-c2c(Cl)ccc(C(=O)O)c2Cl)cc2cnc(Nc3ccccc3)nc21` are 280 nM and 3200 nM.
In the same order, the values of `Cn1c(=O)c(-c2c(Cl)ccc(CO)c2Cl)cc2cnc(Nc3ccccc3)nc21` are 39 nM and 3500 nM.
In the same order, the values of `Cc1cccc(C)c1-c1cc2cnc(Nc3ccccc3)nc2n(C)c1=O` are 14 nM and 990 nM.
For `Cc1cccc(C)c1-c1c(C)c2cnc(Nc3ccccc3)nc2n(C)c1=O`, the 50% inhibitory concentration (IC50) in test [1] is 15000 nM; at Wee1-like protein kinase, 1200 nM.
Turning to `Cn1c(=O)c(-c2c(Br)cccc2Br)cc2cnc(Nc3ccccc3)nc21`, the 50% inhibitory concentration (IC50) in test [1] came to 47 nM; on Wee1-like protein kinase, 410 nM.
In the same order, the values of `COc1cc(OC)c(C)c(-c2cc3cnc(Nc4ccccc4)nc3n(C)c2=O)c1C` are 39000 nM and 33000 nM.
The like results for `Cc1cccc(Br)c1-c1cc2cnc(Nc3ccccc3)nc2n(C)c1=O` were, in that order, 58 nM and 4500 nM.
In the same order, the values of `Cn1c(=O)c(-c2c(Cl)ccc(O)c2Cl)cc2cnc(Nc3ccccc3)nc21` are 9 nM and 74 nM.
In the case of `Cc1cc(O)cc(C)c1-c1cc2cnc(Nc3ccccc3)nc2n(C)c1=O`, the half-inhibitory concentration (IC50) in test [1] is 17 nM; against Wee1-like protein kinase it was 580 nM.
In the same order, the values of `Cn1c(=O)c(-c2c(Cl)cccc2Cl)cc2cnc(Nc3ccc(OCCCC(=O)O)cc3)nc21` are 4 nM and 86 nM.
The like results for `Cc1c(-c2ccccc2)c(=O)n(C)c2nc(Nc3ccccc3)ncc12` were, in that order, > 50000 nM and > 50000 nM.
